The structures appear in SMILES notation.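 96-well plates; 48 h exposure; 5 concentrations. Endpoints by linear interpolation between flanking doses. Not reached: highest tested concentration assigned. At the GI50, growth is halved.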 Calls of active or inactive are those of the source. No stated cut-off is given here; in the data, active = GI50 up to about 1.1 µM and inactive = higher. Square brackets hold non-standard residues; d marks the D form. Peptide text beside a SMILES is read from it. pGlu = O=C1CC[C@@H](C(=O)O)N1; Thz = O=C(O)[C@@H]1CSCN1

Data on nine compounds can be found in ChEMBL document CHEMBL1201862, “PubChem BioAssay data set” (2004).

Among the test systems are CCRF-CEM; HCC 2998; Hs-578T; IGROV-1; K562; KM12; LOX IMVI; MDA-MB-435; Malme-3M; OVCAR-5; SF-295; SK-MEL-2; SK-MEL-5; TK-10; UACC-62; EKVX; HCT-116.
What all share (assay): NCI anticancer screen, dose series, 48 h

As to `O=C1CC[C@@H](C(=O)N2CSC[C@H]2C(=O)O)N1` [PIDOTIMOD] ([pGlu]-[Thz]-OH), the GI50 in the assay with CCRF-CEM, in the assay with HCC 2998, in the assay on Hs-578T, in the assay with IGROV-1, in the assay on K562 and with KM12 was > 100 µM (inactive) each time. In addition, the GI50 with LOX IMVI, in the assay with MDA-MB-435, in the assay on Malme-3M, in the assay on OVCAR-5, in the assay with SF-295 and in the assay with SK-MEL-2 was > 100 µM (inactive) each time. Also, the GI50 with SK-MEL-5, in the assay with TK-10 and in the assay with UACC-62 was > 100 µM (inactive) in each case.
For the compound `O=C1/C(=C/C=C/c2ccccc2)CCC1CNc1ccc(Br)cc1` (stereo not given), the GI50 in the assay on CCRF-CEM was 22.7 µM (inactive); in the assay on EKVX it was > 100 µM (inactive); with HCC 2998, 78 µM (inactive); in the assay with HCT-116, 37.9 µM (inactive); in the assay with Hs-578T, > 100 µM (inactive); with IGROV-1, 46.8 µM (inactive). Besides, the GI50 was 27.1 µM (inactive) in the assay with K562; 15.2 µM (inactive) in the assay with KM12; > 100 µM (inactive) in the assay on LOX IMVI; 44.5 µM (inactive) with MDA-MB-435; 0.106 µM (active) with Malme-3M; > 100 µM (inactive) with OVCAR-5. In addition, the GI50 with SF-295 was > 100 µM (inactive); in the assay with SK-MEL-5, 47.5 µM (inactive); in the assay with TK-10 it was 43.3 µM (inactive); in the assay on UACC-62, 6.92 µM (inactive).
Take `Cc1ccc2nc(Cl)c(/C=N/N3C(=O)/C(=C/c4cccc([N+](=O)[O-])c4)N=C3c3ccccc3)cc2c1`: the GI50 was 25.9 µM (inactive) in the assay on CCRF-CEM; 54.6 µM (inactive) in the assay with EKVX; 67.5 µM (inactive) with HCC 2998; 27.9 µM (inactive) with HCT-116; 94.6 µM (inactive) in the assay on Hs-578T; 31.2 µM (inactive) with IGROV-1. Further, the GI50 is 47.6 µM (inactive) in the assay with K562; 36.6 µM (inactive) in the assay on KM12; 87.1 µM (inactive) with LOX IMVI; 20.7 µM (inactive) in the assay with MDA-MB-435; > 100 µM (inactive) in the assay with OVCAR-5; 40.9 µM (inactive) in the assay with SF-295. The GI50 was 22.2 µM (inactive) in the assay on SK-MEL-2, 43.5 µM (inactive) in the assay on SK-MEL-5, > 100 µM (inactive) in the assay with TK-10 and 34 µM (inactive) in the assay on UACC-62.
In the case of `COc1cc(C(=O)OC2CC(C)=CC[C@@]3(C)CC[C@](O)(C(C)C)C23)ccc1O` (stereo not given in full), the GI50 in the assay on CCRF-CEM is 26.3 µM (inactive); with EKVX, 18.9 µM (inactive); in the assay with HCC 2998 it was 14.5 µM (inactive); with HCT-116 it was 19 µM (inactive); in the assay with Hs-578T it was 17.3 µM (inactive); with IGROV-1, 19 µM (inactive). For the same compound, the GI50 is 17.4 µM (inactive) in the assay with K562; 15.9 µM (inactive) with KM12; 16.2 µM (inactive) in the assay with LOX IMVI; 40.5 µM (inactive) in the assay with MDA-MB-435; 18.6 µM (inactive) in the assay with Malme-3M; 18 µM (inactive) with OVCAR-5. The GI50 in the assay on SF-295 is 21.7 µM (inactive); with SK-MEL-2 it was 16.4 µM (inactive); in the assay on SK-MEL-5, 17.5 µM (inactive); in the assay with TK-10, 15 µM (inactive).
For the compound `CCOP(=O)(OCC)/C(C#N)=C/c1ncc[nH]1`, the GI50 was > 100 µM (inactive) in the assay on CCRF-CEM; > 100 µM (inactive) in the assay with EKVX; > 100 µM (inactive) in the assay on HCC 2998; > 100 µM (inactive) with HCT-116; > 100 µM (inactive) with Hs-578T; > 10 µM (inactive) with IGROV-1. Moreover, the GI50 with K562, in the assay with KM12, in the assay on LOX IMVI, in the assay with MDA-MB-435, in the assay with Malme-3M and with OVCAR-5 was > 100 µM (inactive) each time. For the same compound, the GI50 in the assay with SF-295, in the assay on SK-MEL-2, in the assay with SK-MEL-5 and in the assay with UACC-62 was > 100 µM (inactive) each time.
As to `CSc1c(C(=O)Nc2ccc(Cl)cc2)c(N)n(N)c(=O)c1C#N`, the GI50 is 42.4 µM (inactive) with CCRF-CEM; > 100 µM (inactive) in the assay with EKVX; 54.1 µM (inactive) in the assay on HCC 2998; 32.6 µM (inactive) in the assay with HCT-116; > 100 µM (inactive) with Hs-578T; 46.6 µM (inactive) in the assay on K562. The GI50 is 45.9 µM (inactive) in the assay with KM12; 31.8 µM (inactive) in the assay on LOX IMVI; > 100 µM (inactive) in the assay with MDA-MB-435; > 100 µM (inactive) in the assay with Malme-3M; 58.9 µM (inactive) with OVCAR-5; > 100 µM (inactive) in the assay on SK-MEL-2. The GI50 in the assay with SK-MEL-5 was > 100 µM (inactive); in the assay with TK-10 it was > 100 µM (inactive); in the assay on UACC-62 it was 24.5 µM (inactive).
As for `CCC(=O)O[C@H]1CC[C@H]2[C@@H]3CCC4=C/C(=N/OC(=O)c5cccc6cc7ccccc7nc56)CC[C@]4(C)[C@H]3CC[C@]12C`, the GI50 was 41.2 µM (inactive) in the assay on CCRF-CEM; 53.6 µM (inactive) in the assay with EKVX; > 100 µM (inactive) in the assay with HCC 2998; 36.1 µM (inactive) in the assay on HCT-116; 39.6 µM (inactive) with Hs-578T; 11.5 µM (inactive) with IGROV-1. Besides, the GI50 was > 100 µM (inactive) in the assay with K562; 40.7 µM (inactive) in the assay on KM12; 33.4 µM (inactive) in the assay with LOX IMVI; 38.8 µM (inactive) in the assay on MDA-MB-435; 29.2 µM (inactive) with Malme-3M; > 100 µM (inactive) in the assay on OVCAR-5. Also, the GI50 in the assay on SK-MEL-2 is 55.2 µM (inactive); in the assay on SK-MEL-5 it was 15.2 µM (inactive); with UACC-62, 27.8 µM (inactive).
For the compound `Cc1c(/C=N/NC(=S)Nc2ccc([N+](=O)[O-])cc2)c(=O)n(-c2ccccc2)n1C`, the GI50 is 7.29 µM (inactive) in the assay on CCRF-CEM; 10.1 µM (inactive) with EKVX; 42.3 µM (inactive) in the assay with HCC 2998; 18.6 µM (inactive) in the assay on HCT-116; 15.8 µM (inactive) in the assay on Hs-578T; 12.5 µM (inactive) with IGROV-1. In addition, the GI50 in the assay with K562 is 47.1 µM (inactive); in the assay on KM12, 13.1 µM (inactive); in the assay on LOX IMVI it was 15.2 µM (inactive); with MDA-MB-435, > 100 µM (inactive); with SF-295, 8.53 µM (inactive); in the assay on SK-MEL-2, 15.5 µM (inactive). The results for the GI50 in the assay with SK-MEL-5, in the assay with TK-10 and in the assay on UACC-62 were 33.8 µM (inactive), 11.8 µM (inactive) and 17.6 µM (inactive), respectively.
In the case of `Nc1nc(O)c2nc(CNc3ccc(C(=O)NC(CCC(=O)O)C(=O)O)cc3)cnc2n1` (stereo not given), the GI50 in the assay on CCRF-CEM, with EKVX, with HCC 2998, with Hs-578T, with IGROV-1 and in the assay with K562 was > 100 µM (inactive) throughout. In addition, the GI50 in the assay with KM12, in the assay on LOX IMVI, in the assay on MDA-MB-435, in the assay with Malme-3M, in the assay with OVCAR-5 and in the assay on SF-295 was > 100 µM (inactive) each time. The GI50 in the assay on SK-MEL-2, in the assay with SK-MEL-5, in the assay with TK-10 and in the assay with UACC-62 was > 100 µM (inactive) throughout.
